Earlier results on five compounds are cited in paper PMC12440824, “Chimeric deubiquitinase engineering reveals structural basis for specific inhibition of the mitophagy regulator USP30” (Nature Structural & Molecular Biology, 2025).

Each structure is given as a SMILES string. Where two headings read alike, the source gives them in different places. Bounds are passed on as bounds.

One series concerns recombinant USP30. The note with it: literature values in Extended Data Fig. 1; ref Extended Data Fig. 1; read-out: Ub-Rho IC50; cited from earlier work.
Series [1] relates to USP30. The note with it: literature values in Fig. 1b / Extended Data Fig. 1; ref Extended Data Fig. 1; read-out: Cellular ABPP IC50; cited from earlier work.
Series [2] has as its system USP30. Also on record: method as in Extended Data Fig. 1. The note with it: ref Extended Data Fig. 1; read-out: Tetra-Ub cleavage IC50; cited from earlier work.

Usually IC50 stands for the concentration needed to halve the response being measured. As for `N#Cc1cccc(-c2nnc(C(=O)NC3CC(CF)N(C#N)C3)o2)c1` (stereo not shown) [Example 3], the IC50 with recombinant USP30 is 13 nM.

As to `N#CN1CC[C@@H](NC(=O)c2cc(-c3ccccc3Oc3ccccc3)n[nH]2)C1` [FT385], the IC50 in the series with USP30 [1] is approximately 60 nM; with recombinant USP30, 2 nM.

For `COc1cc(NC(=O)[C@H](Cc2ccccc2)NC(=O)c2ccc(F)cc2)ccc1S(=O)(=O)NC1CCOCC1` [I-150], in the series on recombinant USP30, the IC50 is less than 50 nM.

As to `CC(C)(C)NS(=O)(=O)c1cccc2c(NC(=O)[C@H](Cc3ccccc3)NC(=O)C3CCCCC3)cccc12` [MF-094], the IC50 in the series with USP30 [1] was less than 200 nM; with recombinant USP30, 120 nM.

Consider `C=C1C(=O)C23CCC1CC2C12CCCC(C)(COC1=O)C2CC3O` (stereo not shown) [S3], for which, in the series on USP30 [2], the IC50 was 10000 to 50000 nM.
